Experimental data taken from patent US10787447B2, “Pharmaceutical compounds” (Heptares Therapeutics Limited, priority 2018, dated 2020).

Legend:
Format in all cases: cell-based
[1] = molecular target: T1, human muscarinic M3 receptor (Homo sapiens, UniProt P20309); assay: Alphascreen Surefire phospho-ERK1/2 functional assay, M3; conditions: for % Emax cf. ACh, M3: CHO cells stably expressing human M3; for % Emax cf. ACh, M3 / Emax: Emax relative to ACh; for EC50: pEC50 M3, CHO cells stably expressing human M3, phospho-ERK1/2; for Emax: CHO, read-out: % Emax cf. ACh, M3, CHO cells stably expressing human M3
T1 construct: expressed in transfected cells
T1 sequence (P20309 whole entry): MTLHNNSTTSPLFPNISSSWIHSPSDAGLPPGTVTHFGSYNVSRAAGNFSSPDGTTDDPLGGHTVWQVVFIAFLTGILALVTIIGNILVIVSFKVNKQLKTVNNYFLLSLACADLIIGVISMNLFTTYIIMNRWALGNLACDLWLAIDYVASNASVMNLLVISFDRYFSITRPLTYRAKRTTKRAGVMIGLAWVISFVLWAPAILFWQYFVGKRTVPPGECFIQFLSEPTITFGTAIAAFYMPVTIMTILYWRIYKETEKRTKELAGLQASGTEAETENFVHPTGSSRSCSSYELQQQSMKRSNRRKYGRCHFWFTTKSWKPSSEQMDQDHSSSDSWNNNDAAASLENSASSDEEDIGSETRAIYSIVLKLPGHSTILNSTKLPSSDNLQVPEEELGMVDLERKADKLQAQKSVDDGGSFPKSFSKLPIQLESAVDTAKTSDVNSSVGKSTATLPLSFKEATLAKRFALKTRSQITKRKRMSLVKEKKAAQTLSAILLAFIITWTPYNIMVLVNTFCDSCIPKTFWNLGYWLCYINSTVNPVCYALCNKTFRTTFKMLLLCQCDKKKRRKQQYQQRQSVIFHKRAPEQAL
Method: (§1) ERK1/2 phosphorylation is a downstream consequence of both Gq/11 and Gi/o protein coupled receptor activation, making it highly suitable for the assessment of M1, M3 (Gq/11 coupled) and M2, M4 receptors (Gi/o coupled), rather than using different assay formats for different receptor subtypes. CHO cells stably expressing the human muscarinic M1, M2, M3 or M4 receptor were plated (25K/well) onto 96-well tissue culture plates in MEM-alpha+10% dialysed FBS. Once adhered, cells were serum-starved overnight. Agonist stimulation was performed by the addition of 5 μL agonist to the cells for 5 min (37° C.). Media was removed and 50 μL of lysis buffer added. After 15 min, a 4 μL sample was transferred to 384-well plate and 7 μL of detection mixture added.
(§2) Isomer assignment (Isomer 1, Isomer 2, etc.) is based on the retention time of the compound using the separation technique that was performed in the final purification step. By implication, this could be reversed phase HPLC, chiral HPLC or chiral SFC retention time, and this will vary from compound to compound.

[2] = molecular target: T2, human muscarinic M4 receptor (Homo sapiens, UniProt P08173); assay: Alphascreen Surefire phospho-ERK1/2 functional assay, M4; conditions: for % Emax cf. ACh, M4: CHO cells stably expressing human M4, Emax relative to ACh; for EC50: pEC50 M4, CHO cells stably expressing human M4, phospho-ERK1/2
T2 sequence (P08173 1-479): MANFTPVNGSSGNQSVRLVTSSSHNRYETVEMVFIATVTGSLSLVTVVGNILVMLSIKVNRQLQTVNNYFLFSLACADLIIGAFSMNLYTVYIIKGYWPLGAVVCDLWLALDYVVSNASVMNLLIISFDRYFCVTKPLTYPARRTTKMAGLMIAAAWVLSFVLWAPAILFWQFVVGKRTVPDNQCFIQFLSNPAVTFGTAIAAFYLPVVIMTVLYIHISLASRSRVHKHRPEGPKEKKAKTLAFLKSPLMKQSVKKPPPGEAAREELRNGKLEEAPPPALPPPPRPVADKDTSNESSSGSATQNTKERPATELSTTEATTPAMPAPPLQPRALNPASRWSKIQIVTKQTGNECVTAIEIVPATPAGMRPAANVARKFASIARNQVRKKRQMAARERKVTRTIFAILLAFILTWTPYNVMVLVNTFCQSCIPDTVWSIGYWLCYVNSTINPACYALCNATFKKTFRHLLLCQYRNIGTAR
Method: as §1, §2

[3] = molecular target: T3, human muscarinic M2 receptor (Homo sapiens, UniProt P08172); assay: Alphascreen Surefire phospho-ERK1/2 functional assay, M2; conditions: for % Emax cf. ACh, M2: CHO cells stably expressing human M2; for % Emax cf. ACh, M2 / Emax: Emax relative to ACh; for EC50: pEC50 M2, CHO cells stably expressing human M2, phospho-ERK1/2; for Emax: CHO, read-out: % Emax cf. ACh, M2, CHO cells stably expressing human M2
T3 sequence (P08172 1-466): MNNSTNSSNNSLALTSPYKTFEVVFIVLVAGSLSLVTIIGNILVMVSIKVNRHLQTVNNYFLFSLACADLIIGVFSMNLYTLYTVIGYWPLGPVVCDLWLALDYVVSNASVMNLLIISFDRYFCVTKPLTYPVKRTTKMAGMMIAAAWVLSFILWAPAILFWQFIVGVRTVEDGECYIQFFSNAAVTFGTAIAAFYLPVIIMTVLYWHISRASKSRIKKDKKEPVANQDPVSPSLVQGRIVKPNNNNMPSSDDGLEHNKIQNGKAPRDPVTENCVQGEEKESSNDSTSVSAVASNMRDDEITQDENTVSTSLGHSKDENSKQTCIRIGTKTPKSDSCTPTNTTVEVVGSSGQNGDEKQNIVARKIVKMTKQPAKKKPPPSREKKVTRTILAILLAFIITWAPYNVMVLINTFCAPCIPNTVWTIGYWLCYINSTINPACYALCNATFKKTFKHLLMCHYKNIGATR
Method: as §1, §2

[4] = molecular target: T4, human muscarinic M1 receptor (Homo sapiens, UniProt P11229); assay: Alphascreen Surefire phospho-ERK1/2 functional assay, M1; conditions: for % Emax cf. ACh, M1: CHO cells stably expressing human M1; for EC50: pEC50 M1, CHO cells stably expressing human M1, phospho-ERK1/2
T4 sequence (P11229 1-460): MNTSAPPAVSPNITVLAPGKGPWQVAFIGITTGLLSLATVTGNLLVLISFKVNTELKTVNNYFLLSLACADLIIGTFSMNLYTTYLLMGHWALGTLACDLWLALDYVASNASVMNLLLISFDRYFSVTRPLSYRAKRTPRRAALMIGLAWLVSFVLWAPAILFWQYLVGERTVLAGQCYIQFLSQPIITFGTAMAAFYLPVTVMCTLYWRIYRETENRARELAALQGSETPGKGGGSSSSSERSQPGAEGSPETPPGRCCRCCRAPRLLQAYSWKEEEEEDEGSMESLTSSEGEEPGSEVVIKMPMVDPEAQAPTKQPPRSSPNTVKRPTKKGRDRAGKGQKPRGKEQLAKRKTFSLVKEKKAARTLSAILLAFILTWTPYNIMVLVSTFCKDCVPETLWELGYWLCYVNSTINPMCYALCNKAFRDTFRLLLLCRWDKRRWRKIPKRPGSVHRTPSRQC
Method: as §1, with “Functional assays were performed using the Alphascreen Surefire phospho-ERK1/2 assay (Crouch & Osmond, Comb. Chem. High Throughput Screen, 2008). ERK1/2” for “ERK1/2”
as §2, with “For the vast majority of examples at least two diastereomers exist and these have been separated, unless otherwise stated, using the techniques of reversed phase HPLC, chiral HPLC or chiral SFC. Isomer assignment” for “Isomer assignment”

For `CCOC(=O)N1C2COCC1CC(N1CCC(n3cc(C)cn3)CC1)C2` (single isomer, unassigned) [Example 1-3 Isomer 2, Ethyl 7-[4-(4-methyl-1H-pyrazol-1-yl)piperidin-1-yl]-3-oxa-9-azabicyclo[3.3.1]nonane-9-carboxylate], the “% Emax cf. ACh, M3” value ([1]; listed as 1-3 Isomer 2) was 5%, the EC50 [1] was > 20000 nM and the “% Emax cf. ACh, M4” value [2] was 81%. The EC50 [2] was 112 nM, the “% Emax cf. ACh, M2” value ([3]; listed as 1-3 Isomer 2) was 11% and the EC50 [3] was > 20000 nM. The “% Emax cf. ACh, M1” value ([4]; Emax relative to ACh, listed as 1-3 Isomer 2) was 45% and the EC50 [4] was 316 nM.
For `CCOC(=O)N1C2COCC1CC(N1CCC(c3cccnc3OC)CC1)C2` (single isomer, unassigned) [Example 2-2 Isomer 1, Ethyl 7-[4-(2-methoxypyridin-3-yl)piperidin-1-yl]-3-oxa-9-azabicyclo[3.3.1]nonane-9-carboxylate], the Emax [1] was 4%, the EC50 [1] was > 20000 nM and the “% Emax cf. ACh, M4” value ([2]; listed as 2-2 Isomer 1) was 61%. The EC50 [2] was 36.3 nM, the Emax [3] was 3% and the EC50 [3] was > 20000 nM. The “% Emax cf. ACh, M1” value ([4]; Emax relative to ACh, listed as 2-2 Isomer 1) was 63% and the EC50 [4] was > 20000 nM.
With `CCOC(=O)N1C2COCC1CC(N1CCC(c3cccnc3OC)CC1)C2` (single isomer, unassigned) [Example 2-2 Isomer 2, Ethyl 7-[4-(2-methoxypyridin-3-yl)piperidin-1-yl]-3-oxa-9-azabicyclo[3.3.1]nonane-9-carboxylate] the “% Emax cf. ACh, M3” value [1] was 5%, the “% Emax cf. ACh, M4” value ([2]; listed as 2-2 Isomer 2) was 37% and the EC50 [2] was 112 nM. For the same compound, the “% Emax cf. ACh, M2” value [3] was 3% and the “% Emax cf. ACh, M1” value ([4]; Emax relative to ACh, listed as 2-2 Isomer 2) was 10%.
In the case of `CCOC(=O)N1C2COCC1CC(N1CCC(c3ccc[nH]c3=O)CC1)C2` (single isomer, unassigned) [Example 2-3 Isomer 1, Ethyl 7-[4-(2-oxo-1,2-dihydropyridin-3-yl)piperidin-1-yl]-3-oxa-9-azabicyclo[3.3.1]nonane-9-carboxylate], the Emax [1] is reported as 9%, the EC50 [1] is reported as > 20000 nM and the “% Emax cf. ACh, M4” value ([2]; listed as 2-3 Isomer 1) is reported as 99%. The EC50 [2] was 6.46 nM, the “% Emax cf. ACh, M2” value ([3]; listed as 2-3 Isomer 1) was 45% and the EC50 [3] was 288 nM. The “% Emax cf. ACh, M1” value ([4]; Emax relative to ACh, listed as 2-3 Isomer 1) was 77% and the EC50 [4] was 195 nM.
With `CCOC(=O)N1C2COCC1CC(N1CCC(c3ccc[nH]c3=O)CC1)C2` (single isomer, unassigned) [Example 2-3 Isomer 2, Ethyl 7-[4-(2-oxo-1,2-dihydropyridin-3-yl)piperidin-1-yl]-3-oxa-9-azabicyclo[3.3.1]nonane-9-carboxylate] the “% Emax cf. ACh, M3” value [1] was 5%, the “% Emax cf. ACh, M4” value ([2]; listed as 2-3 Isomer 2) was 65% and the EC50 [2] was 11.5 nM. The “% Emax cf. ACh, M2” value ([3]; listed as 2-3 Isomer 2) was 10%, the EC50 [3] was > 20000 nM and the “% Emax cf. ACh, M1” value ([4]; Emax relative to ACh, listed as 2-3 Isomer 2) was 34%. The EC50 [4] was 174 nM.
With `CCOC(=O)N1C2COCC1CC(N1CCC(N3CC(F)(F)C[C@@H]3CO)CC1)C2` (single isomer, unassigned) [Example 4-1 Isomer 1] the “% Emax cf. ACh, M3” value ([1]; listed as 4-1 Isomer 1) was 11%, the EC50 [1] was > 20000 nM and the “% Emax cf. ACh, M4” value ([2]; listed as 4-1 Isomer 1) was 114%. For the same compound, the EC50 [2] was 30.9 nM, the “% Emax cf. ACh, M2” value ([3]; listed as 4-1 Isomer 1) was 87% and the EC50 [3] was 251 nM. For the same compound, the “% Emax cf. ACh, M1” value ([4]; Emax relative to ACh, listed as 4-1 Isomer 1) was 108% and the EC50 [4] was 155 nM.
`CCOC(=O)N1C2COCC1CC(N1CCC(N3CC(F)(F)C[C@@H]3CO)CC1)C2` (single isomer, unassigned) [Example 4-1 Isomer 2] was tested, and the “% Emax cf. ACh, M3” value ([1]; listed as 4-1 Isomer 2) was 4%, the “% Emax cf. ACh, M4” value ([2]; listed as 4-1 Isomer 2) was 59% and the EC50 [2] was 100 nM. For the same compound, the “% Emax cf. ACh, M2” value ([3]; listed as 4-1 Isomer 2) was 17%, the EC50 [3] was > 20000 nM and the “% Emax cf. ACh, M1” value ([4]; Emax relative to ACh, listed as 4-1 Isomer 2) was 47%. The EC50 [4] was 398 nM.
With `CCOC(=O)N1C2COCC1CC(N1CCC3(CC1)CC3)C2` (single isomer, unassigned) [Example 5-1 Isomer 1, Ethyl 7-(6-azaspiro[2.5]oct-6-yl)-3-oxa-9-azabicyclo[3.3.1]nonane-9-carboxylate] the “% Emax cf. ACh, M3” value ([1]; listed as 5-1 Isomer 1) was 0%, the EC50 [1] was > 20000 nM and the “% Emax cf. ACh, M4” value ([2]; listed as 5-1 Isomer 1) was 13%. For the same compound, the EC50 [2] was > 20000 nM, the Emax [3] was 8% and the EC50 [3] was > 20000 nM. It also gave an Emax ([4]; CHO, read-out: % Emax cf. ACh, M1, CHO cells stably expressing human M1, Emax relative to ACh) of 47% and an EC50 [4] of 72.4 nM.
For `CCOC(=O)N1C2COCC1CC(N1CCC3(CC1)CC3)C2` (single isomer, unassigned) [Example 5-1 Isomer 2, Ethyl 7-(6-azaspiro[2.5]oct-6-yl)-3-oxa-9-azabicyclo[3.3.1]nonane-9-carboxylate], the “% Emax cf. ACh, M3” value ([1]; listed as 5-1 Isomer 2) was 8%, the “% Emax cf. ACh, M4” value ([2]; listed as 5-1 Isomer 2) was 41% and the EC50 [2] was 33.9 nM. For the same compound, the “% Emax cf. ACh, M2” value [3] was 13%, the “% Emax cf. ACh, M1” value ([4]; Emax relative to ACh) was 66% and the EC50 [4] was 141 nM.
